Our source for the IC50 values is patent US20240002391A1, “4-ALKOXYPYRROLO[2,1-F][1,2,4]TRIAZINES AND PREPARATION AND USES THEREOF” (BioSplice Therapeutics, Inc., priority 2022, published 2024).

The target of the assay is recombinant DYRK1A kinase (Homo sapiens (Human), UniProt Q13627). Nature of the assay: DYRK1A kinase assay (Ser/Thr 18 peptide Z-lyte FRET). In kind it is biochemical. The following applies: DYRK1A kinase activity, Z-lyte Ser/Thr 18 peptide, 15 μM ATP; method text calls the value IC50; read-out: EC50 (the source's name). The method in brief: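 IC50 from non-linear fits of percent phosphorylation, derived from coumarin/fluorescein emission ratio after 1 h protease development. Kinase reaction: 1 h room temperature, 15 μM ATP, 4 μM Ser/Thr peptide 18, 0.25 μg/mL recombinant DYRK1A, duplicate 11-point 1:3 dilutions from 10 μM.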
As to `COc1nc(N[C@H]2C[C@](C)(O)C2)nn2ccc(-c3ccc4nc(C)n(CCO)c4c3)c12` [Compound 170, trans-3-((5-(1-(2-Hydroxyethyl)-2-methyl-1H-benzo[d]imidazol-6-yl)-4-methoxypyrrolo[2,1-f][1,2,4]triazin-2-yl)amino)-1-methylcyclobutan-1-ol], the IC50 is 8.6 nM. As for `COc1nc(NC2CC3(COC3)C2)nn2ccc(-c3ccc4nccnc4c3)c12` [Compound 385, 4-Methoxy-5-(quinoxalin-6-yl)-N-(2-oxaspiro[3.3]heptan-6-yl)pyrrolo[2,1-f][11,2,4]triazin-2-amine], the figure is 1.7 nM; as for `COc1nc(N[C@@H]2CN(C(C)=O)C[C@@H]2F)nn2ccc(-c3ccc4nnn(CC(F)F)c4c3)c12` [Compound 734, 1-((3R,4S)-3-((5-(1-(2,2-Difluoroethyl)-1H-benzo[d][1,2,3]triazol-6-yl)-4-methoxypyrrolo[2,1-f][1,2,4]triazin-2-yl)amino)-4-fluoropyrrolidin-1-yl)ethan-1-one], 0.8 nM.

Regarding `COc1nc(N[C@H]2C[C@@](C)(NC(C)=O)C2)nn2ccc(-c3cnc4nccn4c3)c12` [Compound 934, N-((1s,3s)-3-((5-(Imidazo[1,2-a]pyrimidin-6-yl)-4-methoxypyrrolo[2,1-f][1,2,4]triazin-2-yl)amino)-1-methylcyclobutyl)acetamide], the IC50 was 1.6 nM.

On to `COc1nc(N[C@H]2C[C@@](C)(O)C2)nn2ccc(-c3ccn4nccc4c3)c12` [Compound 7, cis-3-((4-Methoxy-5-(pyrazolo[1,5-a]pyridin-5-yl)pyrrolo[2,1-f][1,2,4]triazin-2-yl)amino)-1-methylcyclobutan-1-ol], for which the IC50 is 4.6 nM. As for `COc1nc(N[C@H]2CCN(S(C)(=O)=O)C[C@H]2F)nn2ccc(-c3ccc4nnn(CC(F)F)c4c3)c12` [Compound 1145, 5-(1-(2,2-Difluoroethyl)-1H-benzo[d][1,2,3]triazol-6-yl)-N-((3R,4S)-3-fluoro-1-(methylsulfonyl)piperidin-4-yl)-4-methoxypyrrolo[2,1-f][1,2,4]triazin-2-amine], the figure is 1.4 nM; as for `COc1nc(N[C@@H]2CCN(C(C)=O)CC2(F)F)nn2ccc(-c3ccc4nnn(CC(F)(F)F)c4c3)c12` [Compound 921, (R)-1-(3,3-Difluoro-4-((4-methoxy-5-(1-(2,2,2-trifluoroethyl)-1H-benzo[d]1[1,2,3]triazol-6-yl)pyrrolo[2,1-f][1,2,4]triazin-2-yl)amino)piperidin-1-yl)ethan-1-one], 1.4 nM; as for `COc1nc(N[C@H]2CCN(C(C)=O)C[C@H]2F)nn2ccc(-c3cc(F)c4nc(C)n(C(C)C)c4c3)c12` [Compound 544, 1-((3R,4S)-3-Fluoro-4-((5-(4-fluoro-1-isopropyl-2-methyl-1H-benzo[d]imidazol-6-yl)-4-methoxypyrrolo[2,1-f][1,2,4]triazin-2-yl)amino)piperidin-1-yl)ethan-1-one], 0.9 nM. As for `C[C@]1(O)CC[C@H](Nc2nc(OC3COC3)c3c(-c4ccc5ncnn5c4)ccn3n2)CC1` [Compound 621, (1r,4r)-4-((5-([1,2,4]Triazolo[1,5-a]pyridin-6-yl)-4-(oxetan-3-yloxy)pyrrolo[2,1-f][1,2,4]triazin-2-yl)amino)-1-methylcyclohexan-1-ol], the figure is 35.4 nM; as for `COc1nc(NC2CCN(C(C)=O)CC2)nn2ccc(-c3ccn4nccc4c3)c12` [Compound 27, 1-(4-((4-Methoxy-5-(pyrazolo[1,5-a]pyridin-5-yl)pyrrolo[2,1-f][1,2,4]triazin-2-yl)amino)piperidin-1-yl)ethan-1-one], 9960 nM; as for `COc1nc(N[C@H]2C[C@](C)(NC(C)=O)C2)nn2ccc(-c3cc(F)c4nnn(CC(F)F)c4c3)c12` [Compound 806, N-((1r,3r)-3-((5-(1-(2,2-Difluoroethyl)-4-fluoro-1H-benzo[d][1,2,3]triazol-6-yl)-4-methoxypyrrolo[2,1-f][1,2,4]triazin-2-yl)amino)-1-methylcyclobutyl)acetamide], 1.4 nM.
